Experiments:
Experiment in all cases: PubChem AID 651964; call rule not given here
[1] = tested on: GCLM; conditions: mouse embryonic fibroblasts, qRT-PCR mRNA fold induction, at 10 µM (top of the series)
[2] = tested on: BiP; conditions: mouse embryonic fibroblasts, qRT-PCR mRNA fold induction, at 10 µM (top of the series)
[3] = target: DNA damage-inducible transcript 3 protein (Mus musculus) (UniProt P35639); conditions: mouse embryonic fibroblasts, qRT-PCR mRNA fold induction; CHOP; at 10 µM (top of the series)
Sequence of DNA damage-inducible transcript 3 protein (Mus musculus) (P35639 whole entry, looked up): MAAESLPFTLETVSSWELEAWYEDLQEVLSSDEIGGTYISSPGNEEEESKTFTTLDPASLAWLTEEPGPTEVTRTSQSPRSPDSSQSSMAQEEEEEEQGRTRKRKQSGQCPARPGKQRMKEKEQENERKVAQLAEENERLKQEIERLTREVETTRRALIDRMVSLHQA

[4] = tested on: Hsp70; conditions: mouse embryonic fibroblasts, qRT-PCR mRNA fold induction, at 10 µM (top of the series)
[5] = tested on: HO-1; conditions: mouse embryonic fibroblasts, qRT-PCR mRNA fold induction, at 10 µM (top of the series)

Measured: fold induction of mRNA

COc1ccc(/C=C/C=C2C(=O)NC(=O)NC2=O)cc1
active: [1] 1.6 | [2] 2.18 | [3] 2.08 | [4] 18.9 | [5] 5.54

Source: PubChem BioAssay AID651964 (The Scripps Research Institute Molecular Screening Center, 2012)
